The results in this text go back to patent US20260365688A1, “STRAINED BICYCLONONENES” (TAGWORKS PHARMACEUTICALS B.V., priority 2022, published 2026).

Type in all cases: physicochemical
Test [1] in a line: Second-order rate constant of IEDDA reaction of TCO with tetrazine 2.1 in MeCN by UV-Vis. Particulars: activator 2.1; in MeCN at 20 °C; second-order conditions. The protocol:
(§1) The second-order rate constant of the IEDDA reaction of 3,6-dimethyl-1,2,4,5-tetrazine (2.1) or 3,6-di(pyridin-2-yl)-1,2,4,5-tetrazine (2.2) and a compound of the disclosure in MeCN at 20 °C was determined by UV-Vis spectrometry under second-order reaction conditions (n=1). A cuvette was filled with a solution of 3,6-dimethyl-1,2,4,5-tetrazine or 3,6-di(pyridin-2-yl)-1,2,4,5-tetrazine (3 mL 0.083 mM in MeCN), and equilibrated at 20 °C. Next, a solution of the compound of the disclosure (10.0 μL 25 mM in acetonitrile, 2.50×10^−7 mol) was added, and the solution was quickly homogenized and inserted in the UV spectrometer. The absorption at λ=540 nm (specific for the tetrazine moiety) was measured every second in a time course experiment. From the decay of this absorption, the conversion was calculated. The second-order rate constant k2 was determined from the slope of the curve of a plot of 1/c −1/c0 versus time.

A short description of test [2]: Second-order rate constant of IEDDA reaction of TCO with tetrazine 2.2 in MeCN by UV-Vis. Particulars: activator 2.2; in MeCN at 20 °C; second-order conditions. How it is done:
as §1

Test [3] can be described thus: Releasing activity of s-TCO derivatives on reaction with 3,6-dimethyl-1,2,4,5-tetrazine (HPLC-MS PDA). The following applies: acetonitrile/PBS; for formation of the (pyridazine) elimination product: after 30 min. The protocol: To a stock solution of 1.7 (10 uL 17.8 mM in DMSO, 1.78×10^−7 mol) was added acetonitrile (0.2 mL), PBS (0.8 mL), and a stock solution of 3,6-dimethyl-1,2,4,5-tetrazine (7.1 uL 25 mM in DMSO, 1.78×10^−7 mol). […] ESI-MS: m/z Calc. for C18H21N3O4 343.15 Da; Obs. [M+H]^+ 344.25 Da, max=243 nm.
To a solution of 1.21 (3.75×10^−7 mol) in acetonitrile (0.2 mL) was added PBS (0.8 mL), and a stock solution of 3,6-dimethyl-1,2,4,5-tetrazine (20 uL 25 mM in DMSO, 5.0×10^−7 mol). […] ESI-MS: m/z Calc. for C18H21N3O4 343.15 Da; Obs. [M+H]^+ 344.25 Da, λmax=250 nm.
To a solution of 1.22 (3.75×10-8 mol) in acetonitrile (0.02 mL) was added PBS (0.08 mL), and a stock solution of 3,6-dimethyl-1,2,4,5-tetrazine (2 uL 25 mM in DMSO, 5.0×10-8 mol).

On to `CN(Cc1ccccc1)C(=O)O[C@H]1/C=C/C[C@@H]2[C@H](CC1)[C@@H]2C(=O)ON1C(=O)CCC1=O` [Compound 1.7, 2,5-Dioxopyrrolidin-1-yl (1R,5R,8S,9S,E)-5-((benzyl(methyl)carbamoyl)oxy)bicyclo[6.1.0]non-3-ene-9-carboxylate], for which, in test [1], the “Rate constants k2” value was found to be 2.9 M⁻¹ s⁻¹. The “Rate constants k2” value in test [2] worked out at 375 M⁻¹ s⁻¹. Besides, in test [3], the “disappearance of the pink color (tetrazine consumption)” value is listed as “within minutes” and the “formation of the (pyridazine) elimination product” value is “quantitative formation”.
Take `COC(=O)[C@@H]1[C@@H]2C/C=C/[C@H](O)CC[C@@H]21` [Compound 1.6b, Methyl (1R,5R,8S,9S,E)-5-hydroxybicyclo[6.1.0]non-3-ene-9-carboxylate]: the “Rate constants k2” value in test [1] is 3.3 M⁻¹ s⁻¹.
Turning to `O=C1O[C@@H]2C=CCCC[C@@H]3[C@H]1[C@@H]32` (stereo in doubt) [Compound 1.17b, (1R,2S,8R,11S,E)-9-Oxatricyclo[6.3.0.0^2,11]undec-6-en-10-one], the “Rate constants k2” value in test [1] amounted to 8.7 M⁻¹ s⁻¹.
The same measure, in the same setting: to `COC(=O)[C@H]1[C@H]2CCC/C=C/[C@@H](O)[C@H]21` [Compound 1.16a, Methyl (1R,2R,8S,9S,E)-2-hydroxybicyclo[6.1.0]non-3-ene-9-carboxylate] belongs 7.0 M⁻¹ s⁻¹.
Consider `O=C1O[C@@H]2C=CCCC[C@@H]3[C@H]1[C@@H]32` (stereo in doubt) [Compound 1.17a, (1R,2S,8R,11S,E)-9-Oxatricyclo[6.3.0.0^2,11]undec-6-en-10-one], for which the “Rate constants k2” value in test [1] stood at 11.5 M⁻¹ s⁻¹; in test [2], 1100 M⁻¹ s⁻¹.
Regarding `CN(Cc1ccccc1)C(=O)O[C@@H]1/C=C/CCC[C@@H]2[C@H](C(=O)ON3C(=O)CCC3=O)[C@@H]21` [Compound 1.21, 2,5-Dioxopyrrolidin-1-yl (1R,2R,8S,9S,E)-2-((benzyl(methyl)carbamoyl)oxy)bicyclo[6.1.0]non-3-ene-9-carboxylate], the entries for the “Rate constants k2” value in test [1] and in test [2] were 8.0 M⁻¹ s⁻¹ and 605 M⁻¹ s⁻¹, respectively. For the same compound, in test [3], the “disappearance of the pink color (tetrazine consumption)” value is reported as “within minutes”. The “formation of the (pyridazine) elimination product” value in test [3] was “quantitative formation”.
Consider `COC(=O)[C@H]1[C@H]2CCC/C=C/[C@@H](O)[C@H]21` [Compound 1.16b, Methyl (1R,2R,8S,9S,E)-2-hydroxybicyclo[6.1.0]non-3-ene-9-carboxylate], for which, in test [1], the “Rate constants k2” value amounted to 0.3 M⁻¹ s⁻¹.
